Source: US10485235B2, “Aryloxypyrimidinyl ethers as herbicides” (FMC Corporation, priority 2015, dated 2019)

What was measured:
Type in all cases: in vivo
kochia (Kochia scoparia) [1] = assay: Test A preemergence, kochia; details: Bassia scoparia, pre-emergence, 240 h, Preemergence, 0 to 100 scale (0 no effect, 100 complete control), read-out: Plant response rating, Kochia
In short: (§1)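 Approximately 10-day greenhouse assay. Formulated chemical (non-phytotoxic solvent plus surfactant) applied preemergence to soil over seeds or postemergence to plants of 2 to 10 cm. Endpoint: visual percent control, 0–100.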

[2] = tested on: ragweed (common ragweed, Ambrosia elatior); assay: Test A preemergence, ragweed; details: Ambrosia artemisiifolia, pre-emergence, 240 h, Preemergence, 0 to 100 scale (0 no effect, 100 complete control), read-out: Plant response rating, Ragweed
In short: as §1

[3] = tested on: ryegrass, Italian (Italian ryegrass, Lolium multiflorum); assay: Test A preemergence, Italian ryegrass; details: Lolium multiflorum, pre-emergence, 240 h, Preemergence, 0 to 100 scale (0 no effect, 100 complete control), read-out: Plant response rating, Ryegrass, Italian
In short: as §1

[4] = tested on: foxtail, giant (giant foxtail, Setaria faberii); assay: Test A preemergence, giant foxtail; details: Setaria faberi, pre-emergence, 240 h, Preemergence, 0 to 100 scale (0 no effect, 100 complete control), read-out: Plant response rating, Foxtail, Giant
In short: as §1

[5] = tested on: barnyardgrass (Echinochloa crus-galli); assay: Test A postemergence, barnyardgrass; details: Echinochloa crus-galli, post-emergence, 240 h, postemergence, 0 to 100 scale, 0 is no effect, 100 is complete control, approximately 10 days, read-out: Plant response rating, Barnyardgrass
In short: as §1

kochia (Kochia scoparia) [6] = assay: Test A postemergence, kochia; details: Bassia scoparia, post-emergence, 240 h, postemergence, 0 to 100 scale, 0 is no effect, 100 is complete control, approximately 10 days, read-out: Plant response rating, Kochia
In short: as §1

[7] = tested on: ragweed (common ragweed, Ambrosia elatior); assay: Test A postemergence, ragweed; details: Ambrosia artemisiifolia, post-emergence, 240 h, postemergence, 0 to 100 scale, 0 is no effect, 100 is complete control, approximately 10 days, read-out: Plant response rating, Ragweed
In short: as §1

[8] = tested on: foxtail, giant (giant foxtail, Setaria faberii); assay: Test A postemergence, giant foxtail; details: Setaria faberi, post-emergence, 240 h, postemergence, 0 to 100 scale, 0 is no effect, 100 is complete control, approximately 10 days, read-out: Plant response rating, Foxtail, Giant
In short: as §1

[9] = tested on: wheat (Triticum aestivum); assay: Test A postemergence, wheat; details: Triticum aestivum, post-emergence, 240 h, postemergence, 0 to 100 scale, 0 is no effect, 100 is complete control, approximately 10 days, read-out: Plant response rating, Wheat
In short: as §1

corn (Zea mays) = assay: Test A postemergence, corn; details: Zea mays, post-emergence, 240 h, postemergence, 0 to 100 scale, 0 is no effect, 100 is complete control, approximately 10 days
In short: as §1

[10] = tested on: blackgrass (Alopecurus myosuroides); assay: Test A postemergence, blackgrass; details: Alopecurus myosuroides, post-emergence, 240 h, postemergence, 0 to 100 scale, 0 is no effect, 100 is complete control, approximately 10 days, read-out: Plant response rating, Blackgrass
In short: as §1

[11] = tested on: galium (catchweed bedstraw, Galium aparine); assay: Test A postemergence, galium; details: Galium, post-emergence, 240 h, postemergence, 0 to 100 scale, 0 is no effect, 100 is complete control, approximately 10 days, read-out: Plant response rating, Galium
In short: as §1

rice (Oryza sativa) = assay: Test B flooded paddy test, rice; details: Oryza sativa; 250 g ai/ha, Flood; visual rating after 13 to 15 days; scale 0 to 100, 0 is no effect, 100 is complete control; read-out: Plant response rating, Rice
In short: (§2)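 Visual injury scored 0 (no effect) to 100 (complete control) relative to controls 13-15 days after treatment in greenhouse. Treatment: test compound added into paddy water of pots flooded 3 cm over soil, holding 2-leaf-stage plants; water level kept constant.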

[12] = tested on: sedge, umbrella (small-flower umbrella sedge, Cyperus difformis); assay: Test B flooded paddy test, umbrella sedge; details: Cyperus difformis; 250 g ai/ha, Flood; visual rating after 13 to 15 days; scale 0 to 100, 0 is no effect, 100 is complete control; read-out: Plant response rating, Sedge, Umbrella
In short: as §2

[13] = tested on: barnyardgrass (Echinochloa crus-galli); assay: Test B flooded paddy test, barnyardgrass; details: Echinochloa crus-galli; 250 g ai/ha, Flood; visual rating after 13 to 15 days; scale 0 to 100, 0 is no effect, 100 is complete control; read-out: Plant response rating, Barnyardgrass
In short: as §2

## FC(F)(F)COc1c(I)cccc1Oc1ncc(Cl)cn1 [Compound 65]
Kochia (Kochia scoparia) [1]; 31 g ai/ha
  pest or weed control at 31 g/ha: 20%
Kochia (Kochia scoparia) [1]; 125 g ai/ha
  pest or weed control at 125 g/ha: 90%
[2]; 31 g ai/ha
  pest or weed control at 31 g/ha: 0%
[2]; 125 g ai/ha
  pest or weed control at 125 g/ha: 0%
[3]; 31 g ai/ha
  pest or weed control at 31 g/ha: 0%
[3]; 125 g ai/ha
  pest or weed control at 125 g/ha: 10%
[4]; 31 g ai/ha
  pest or weed control at 31 g/ha: 30%
[4]; 125 g ai/ha
  pest or weed control at 125 g/ha: 100%
[5]; 31 g ai/ha
  pest or weed control at 31 g/ha: 0%
[5]; 125 g ai/ha
  pest or weed control at 125 g/ha: 60%
Kochia (Kochia scoparia) [6]; 31 g ai/ha
  pest or weed control at 31 g/ha: 80%
Kochia (Kochia scoparia) [6]; 125 g ai/ha
  pest or weed control at 125 g/ha: 100%
[7]; 31 g ai/ha
  pest or weed control at 31 g/ha: 0%
[7]; 125 g ai/ha
  pest or weed control at 125 g/ha: 0%
[8]; 31 g ai/ha
  pest or weed control at 31 g/ha: 10%
[8]; 125 g ai/ha
  pest or weed control at 125 g/ha: 50%
[9]; 31 g ai/ha
  plant injury at 31 g/ha: 0%
[9]; 125 g ai/ha
  plant injury at 125 g/ha: 0%
Corn (Zea mays); 31 g ai/ha
  Corn plant response rating (crop injury, 0 = no effect, 100 = complete kill) at 31 g/ha: 10%
Corn (Zea mays); 125 g ai/ha
  Corn plant response rating (crop injury, 0 = no effect, 100 = complete kill) at 125 g/ha: 20%
[10]; 31 g ai/ha
  pest or weed control at 31 g/ha: 0%
[10]; 125 g ai/ha
  pest or weed control at 125 g/ha: 30%
[11]; 31 g ai/ha
  pest or weed control at 31 g/ha: 30%
[11]; 125 g ai/ha
  pest or weed control at 125 g/ha: 50%
Rice (Oryza sativa)
  plant injury at 250 g/ha: 0%
[12]
  pest or weed control at 250 g/ha: 90%
[13]
  pest or weed control at 250 g/ha: 20%
